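Five compound concentrations were applied to cells in 96-well plates for 48 hours; endpoints were derived by simple linear interpolation of the resulting dose-response curve. Here, GI50 denotes the concentration required for 50% inhibition of growth.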 Calls of active or inactive are those of the source. No stated cut-off is given here; in the data, active = GI50 up to about 1.1 µM and inactive = higher.
Columns and labels:
Test in all cases: growth of human tumour cells (NCI), 48 h
786-0 = system: 786-0
A498 = system: A498
A549 = system: A549
ACHN = system: ACHN
BT-549 = system: BT-549
CAKI-1 = system: CAKI-1
CCRF-CEM = system: CCRF-CEM
COLO 205 = system: COLO 205
DU-145 = system: DU-145
EKVX = system: EKVX
HCC 2998 = system: HCC 2998
HCT-116 = system: HCT-116
HCT-15 = system: HCT-15
HL-60 = system: HL-60
HOP-62 = system: HOP-62
HOP-92 = system: HOP-92
HT-29 = system: HT-29
Hs-578T = system: Hs-578T
IGROV-1 = system: IGROV-1
K562 = system: K562
KM12 = system: KM12
LOX IMVI = system: LOX IMVI
M14 = system: M14
MCF7 = system: MCF7
MDA-MB-231 = system: MDA-MB-231
MDA-MB-435 = system: MDA-MB-435
MDA-N = system: MDA-N
MOLT-4 = system: MOLT-4
Malme-3M = system: Malme-3M
NCI-H226 = system: NCI-H226
NCI-H23 = system: NCI-H23
NCI-H460 = system: NCI-H460
NCI-H522 = system: NCI-H522
NCI/ADR-RES = system: NCI/ADR-RES
OVCAR-3 = system: OVCAR-3
OVCAR-4 = system: OVCAR-4
OVCAR-5 = system: OVCAR-5
OVCAR-8 = system: OVCAR-8
PC-3 = system: PC-3
RPMI-8226 = system: RPMI-8226
RXF 393 = system: RXF 393
SF-268 = system: SF-268
SF-295 = system: SF-295
SF-539 = system: SF-539
SK-MEL-28 = system: SK-MEL-28
SK-MEL-2 = system: SK-MEL-2
SK-MEL-5 = system: SK-MEL-5
SK-OV-3 = system: SK-OV-3
SN12C = system: SN12C
SNB-19 = system: SNB-19
SNB-75 = system: SNB-75
SR = system: SR
SW-620 = system: SW-620
T47D = system: T47D
TK-10 = system: TK-10
U-251 = system: U-251
UACC-257 = system: UACC-257
UACC-62 = system: UACC-62
UO-31 = system: UO-31
DLD-1 = system: DLD-1
DMS-114 = system: DMS-114
DMS-273 = system: DMS-273
KM-20L2 = system: KM-20L2
LXFL 529 = system: LXFL 529
M19-MEL = system: M19-MEL
SNB-78 = system: SNB-78

Structure (SMILES): Nc1nc(Cl)c(N)c(NCC2(CO)CC2)n1
- GI50 (786-0): > 100 µM (inactive)
- GI50 (A498): > 100 µM (inactive)
- GI50 (A549): > 100 µM (inactive)
- GI50 (ACHN): > 100 µM (inactive)
- GI50 (BT-549): > 100 µM (inactive)
- GI50 (CAKI-1): > 100 µM (inactive)
- GI50 (CCRF-CEM): > 100 µM (inactive)
- GI50 (COLO 205): > 100 µM (inactive)
- GI50 (DU-145): > 100 µM (inactive)
- GI50 (EKVX): > 100 µM (inactive)
- GI50 (HCC 2998): > 100 µM (inactive)
- GI50 (HCT-116): > 100 µM (inactive)
- GI50 (HCT-15): > 100 µM
- GI50 (HL-60): > 100 µM (inactive)
- GI50 (HOP-62): > 100 µM (inactive)
- GI50 (HOP-92): > 100 µM (inactive)
- GI50 (HT-29): > 100 µM (inactive)
- GI50 (Hs-578T): > 100 µM (inactive)
- GI50 (IGROV-1): > 100 µM (inactive)
- GI50 (K562): > 100 µM (inactive)
- GI50 (KM12): > 100 µM (inactive)
- GI50 (LOX IMVI): > 100 µM (inactive)
- GI50 (M14): > 100 µM (inactive)
- GI50 (MCF7): > 100 µM (inactive)
- GI50 (MDA-MB-231): > 100 µM (inactive)
- GI50 (MDA-MB-435): > 100 µM (inactive)
- GI50 (MDA-N): > 100 µM (inactive)
- GI50 (MOLT-4): > 100 µM (inactive)
- GI50 (Malme-3M): > 100 µM (inactive)
- GI50 (NCI-H226): > 100 µM (inactive)
- GI50 (NCI-H23): > 100 µM (inactive)
- GI50 (NCI-H460): > 100 µM (inactive)
- GI50 (NCI-H522): > 100 µM (inactive)
- GI50 (NCI/ADR-RES): > 100 µM (inactive)
- GI50 (OVCAR-3): > 100 µM (inactive)
- GI50 (OVCAR-4): > 100 µM (inactive)
- GI50 (OVCAR-5): > 100 µM (inactive)
- GI50 (OVCAR-8): > 100 µM (inactive)
- GI50 (PC-3): > 100 µM (inactive)
- GI50 (RPMI-8226): > 100 µM (inactive)
- GI50 (RXF 393): > 100 µM (inactive)
- GI50 (SF-268): > 100 µM (inactive)
- GI50 (SF-295): > 100 µM (inactive)
- GI50 (SF-539): > 100 µM (inactive)
- GI50 (SK-MEL-28): > 100 µM (inactive)
- GI50 (SK-MEL-2): > 100 µM (inactive)
- GI50 (SK-MEL-5): > 100 µM (inactive)
- GI50 (SK-OV-3): > 100 µM (inactive)
- GI50 (SN12C): > 100 µM (inactive)
- GI50 (SNB-19): > 100 µM (inactive)
- GI50 (SNB-75): > 100 µM (inactive)
- GI50 (SR): > 100 µM (inactive)
- GI50 (SW-620): > 100 µM (inactive)
- GI50 (T47D): > 100 µM (inactive)
- GI50 (TK-10): > 100 µM (inactive)
- GI50 (U-251): > 100 µM (inactive)
- GI50 (UACC-257): > 100 µM (inactive)
- GI50 (UACC-62): > 100 µM (inactive)
- GI50 (UO-31): > 100 µM (inactive)

Structure (SMILES): CC(=O)Nc1ccc2c(c1)C(=O)c1ccccc1-2
- GI50 (786-0): > 100 µM (inactive)
- GI50 (A549): > 100 µM (inactive)
- GI50 (ACHN): > 100 µM (inactive)
- GI50 (CCRF-CEM): > 100 µM (inactive)
- GI50 (COLO 205): > 100 µM (inactive)
- GI50 (DLD-1): > 100 µM (inactive)
- GI50 (DMS-114): > 100 µM (inactive)
- GI50 (DMS-273): > 100 µM (inactive)
- GI50 (EKVX): > 100 µM (inactive)
- GI50 (HCC 2998): > 100 µM (inactive)
- GI50 (HCT-116): > 100 µM (inactive)
- GI50 (HCT-15): > 100 µM
- GI50 (HL-60): > 100 µM (inactive)
- GI50 (HOP-62): > 100 µM (inactive)
- GI50 (HT-29): > 100 µM (inactive)
- GI50 (IGROV-1): > 100 µM (inactive)
- GI50 (K562): > 100 µM (inactive)
- GI50 (KM-20L2): > 100 µM (inactive)
- GI50 (KM12): > 100 µM (inactive)
- GI50 (LOX IMVI): > 100 µM (inactive)
- GI50 (LXFL 529): > 100 µM (inactive)
- GI50 (M14): > 100 µM (inactive)
- GI50 (M19-MEL): > 100 µM (inactive)
- GI50 (MOLT-4): > 100 µM (inactive)
- GI50 (Malme-3M): > 100 µM (inactive)
- GI50 (NCI-H226): > 100 µM (inactive)
- GI50 (NCI-H23): > 100 µM (inactive)
- GI50 (NCI-H460): > 100 µM (inactive)
- GI50 (NCI-H522): > 100 µM (inactive)
- GI50 (OVCAR-3): > 100 µM (inactive)
- GI50 (OVCAR-8): > 100 µM (inactive)
- GI50 (RPMI-8226): > 100 µM (inactive)
- GI50 (RXF 393): > 100 µM (inactive)
- GI50 (SF-268): > 100 µM (inactive)
- GI50 (SF-295): > 100 µM (inactive)
- GI50 (SF-539): > 100 µM (inactive)
- GI50 (SK-MEL-28): > 100 µM (inactive)
- GI50 (SK-OV-3): > 100 µM (inactive)
- GI50 (SN12C): > 100 µM (inactive)
- GI50 (SNB-19): > 100 µM (inactive)
- GI50 (SNB-75): > 100 µM (inactive)
- GI50 (SNB-78): > 100 µM (inactive)
- GI50 (SR): > 100 µM (inactive)
- GI50 (SW-620): > 100 µM (inactive)
- GI50 (TK-10): > 100 µM (inactive)
- GI50 (U-251): > 100 µM (inactive)
- GI50 (UACC-257): > 100 µM (inactive)
- GI50 (UACC-62): > 100 µM (inactive)
- GI50 (UO-31): > 100 µM (inactive)
